Measured values from BindingDB's records for doi:10.1080/14756360500112326 (National Institute of Pharmaceutical Education and Research, 2005).
pIC50: −log10 of the molar value.

Biological target: Xanthine dehydrogenase/oxidase (Homo sapiens, UniProt P47989)
Assay: Xanthine Oxidase Inhibition Assay
Method: Inhibition assay of the xanthine oxidase reaction by various purine based inhibitors was measured in terms of the decrease in uric acid formation at […].

Sequence of Xanthine dehydrogenase/oxidase (P47989 whole entry): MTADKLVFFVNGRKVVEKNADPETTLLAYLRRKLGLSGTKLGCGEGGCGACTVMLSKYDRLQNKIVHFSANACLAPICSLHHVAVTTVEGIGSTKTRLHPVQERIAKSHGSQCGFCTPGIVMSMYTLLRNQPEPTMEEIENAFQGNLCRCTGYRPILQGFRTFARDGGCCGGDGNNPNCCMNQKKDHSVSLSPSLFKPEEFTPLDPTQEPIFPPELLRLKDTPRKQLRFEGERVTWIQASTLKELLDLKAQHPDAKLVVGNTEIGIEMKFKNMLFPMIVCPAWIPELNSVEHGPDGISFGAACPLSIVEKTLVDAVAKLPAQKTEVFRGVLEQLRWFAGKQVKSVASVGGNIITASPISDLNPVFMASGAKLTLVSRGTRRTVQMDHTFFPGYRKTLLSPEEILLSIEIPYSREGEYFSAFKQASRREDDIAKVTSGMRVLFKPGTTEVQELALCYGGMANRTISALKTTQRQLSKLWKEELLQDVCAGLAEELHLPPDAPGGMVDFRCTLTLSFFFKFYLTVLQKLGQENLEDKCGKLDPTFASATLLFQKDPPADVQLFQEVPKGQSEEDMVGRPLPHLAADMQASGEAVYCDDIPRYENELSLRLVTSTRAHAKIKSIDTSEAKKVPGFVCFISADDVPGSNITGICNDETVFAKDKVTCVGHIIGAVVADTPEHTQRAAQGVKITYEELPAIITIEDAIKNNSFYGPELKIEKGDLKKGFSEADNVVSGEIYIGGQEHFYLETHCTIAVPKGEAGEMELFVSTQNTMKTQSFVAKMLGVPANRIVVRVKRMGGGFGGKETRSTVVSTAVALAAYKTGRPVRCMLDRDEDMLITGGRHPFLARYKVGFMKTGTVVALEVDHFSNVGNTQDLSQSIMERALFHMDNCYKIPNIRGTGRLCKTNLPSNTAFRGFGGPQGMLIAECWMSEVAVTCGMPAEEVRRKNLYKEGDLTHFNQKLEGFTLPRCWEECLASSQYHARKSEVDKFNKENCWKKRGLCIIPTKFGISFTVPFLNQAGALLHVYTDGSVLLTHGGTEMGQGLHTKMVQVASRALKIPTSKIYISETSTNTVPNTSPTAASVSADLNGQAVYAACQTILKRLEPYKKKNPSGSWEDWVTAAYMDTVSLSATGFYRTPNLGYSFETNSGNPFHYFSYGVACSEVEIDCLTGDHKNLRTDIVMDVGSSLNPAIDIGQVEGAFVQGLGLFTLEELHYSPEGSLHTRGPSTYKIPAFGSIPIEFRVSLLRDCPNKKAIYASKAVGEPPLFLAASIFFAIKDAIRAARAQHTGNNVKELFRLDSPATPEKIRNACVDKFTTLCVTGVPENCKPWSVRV

Row | pIC50 | Structure (SMILES)
1 | 4.12 | Nc1ncnc2nc[nH]c12
2 | 6.35 | O=C(Nc1ncnc2nc[nH]c12)c1ccccc1 [6-(N-benzoylamino)purine, 2]
3 | 3.40 | O=c1[nH]c(=O)c2[nH]c(Br)nc2[nH]1 [8-Bromoxanthine, 3]
